Bridge positions count the residues as written; N and C are the ends. Square brackets hold non-standard residues; d marks the D form. Peptide text beside a SMILES is read from it. I, II: the chains in the order shown. * marks the point of attachment. Quinaldoyl(3-OH) = O=C(c1nc2ccccc2cc1O)*; NMeC = CN[C@@H](CS)C(=O)O
Legend:
Assay type in all cases: functional
PANC-1 = test: Cytotoxicity against human PANC1 cells after 72 hrs by SRB assay; conditions: PANC-1, 72 h
DU-145 = test: Cytotoxicity against human DU145 cells after 72 hrs by SRB assay; conditions: DU-145, 72 h
[1] = Cytotoxicity against human IGROV cells after 72 hrs by SRB assay
LoVo [2] = test: Cytotoxicity against human LoVo cells after 72 hrs by SRB assay
LNCaP = test: Cytotoxicity against human LNCaP cells after 72 hrs by SRB assay
A549 = test: Cytotoxicity against human A549 cells after 72 hrs by SRB assay; conditions: A549, 72 h
HT-29 = test: Cytotoxicity against human HT29 cells after 72 hrs by SRB assay; conditions: HT-29, 72 h
K562 = test: Cytotoxicity against human K562 cells after 72 hrs by SRB assay; conditions: K562, 72 h
SK-BR-3 = test: Cytotoxicity against human SK-BR3 cells after 72 hrs by SRB assay; conditions: SK-BR-3, 72 h
LoVo [3] = test: Cytotoxicity against doxorubicin resistant human LoVo cells after 72 hrs by SRB assay
SK-MEL-28 = test: Cytotoxicity against human SK-MEL-28 cells after 72 hrs by SRB assay; conditions: SK-MEL-28, 72 h
HeLa = test: Cytotoxicity against human HeLa cells after 72 hrs by SRB assay
[4] = read-out: LC50 (the source's name)

**Q.** Which results are given for CSC[C@H]1C(=O)SC[C@@H](NC(=O)c2nc3ccccc3cc2O)C(=O)NCC(=O)N(C)[C@H]2CSSC[C@@H](C(=O)N1C)N(C)C(=O)CNC(=O)[C@H](NC(=O)c1nc3ccccc3cc1O)CSC(=O)[C@H](CSC)N(C)C2=O [THIOCORALINE A] (I: {Quinaldoyl(3-OH)}-[dC]G[NMeC][NMeC](Me) / II: {Quinaldoyl(3-OH)}-[dC]G[NMeC][NMeC](Me); thioester I:1-II:C, I:C-II:1; disulfide I:3-II:3)?
**A.** GI50 (PANC-1): 2.5 nM; TGI (PANC-1): 82.5 nM; CC50 (PANC-1; [4]): 378 nM; GI50 (DU-145): 1.9 nM; TGI (DU-145): 6.4 nM; CC50 (DU-145; [4]): 1480 nM; GI50 [1]: 1.9 nM; TGI [1]: 11.1 nM; CC50 [1, 4]: 1260 nM; GI50 (LoVo [2]): 7.2 nM; TGI (LoVo [2]): 263 nM; CC50 (LoVo [2]; [4]): 284 nM; GI50 (LNCaP): 3 nM; TGI (LNCaP): 5 nM; CC50 (LNCaP; [4]): 14.2 nM; GI50 (A549): 4.8 nM; TGI (A549): 19.3 nM; CC50 (A549; [4]): 95.6 nM; GI50 (HT-29): 3.9 nM; TGI (HT-29): 73.6 nM; CC50 (HT-29; [4]): 6290 nM; GI50 (K562): 1.3 nM; TGI (K562): 4.6 nM; CC50 (K562; [4]): 9.2 nM; GI50 (SK-BR-3): 2.2 nM; TGI (SK-BR-3): 8.9 nM; CC50 (SK-BR-3; [4]): 30.8 nM; GI50 (LoVo [3]): 212 nM; TGI (LoVo [3]): 2380 nM; GI50 (SK-MEL-28): 3 nM; TGI (SK-MEL-28): 14 nM; CC50 (SK-MEL-28; [4]): 50.3 nM; GI50 (HeLa): 1.3 nM; TGI (HeLa): 4.7 nM; CC50 (HeLa; [4]): 22.6 nM

— ChEMBL document CHEMBL1145432, “Antitumor activity, X-ray crystal structure, and DNA binding properties of thiocoraline A, a natural bisintercalating thiodepsipeptide” (2007)
